Experimental data taken from ChEMBL document CHEMBL1131370, “Identification of potent inhibitors of Plasmodium falciparum plasmepsin II from an encoded statine combinatorial library” (Bioorg Med Chem Lett, 1998).

How the values were obtained:
[1] = molecular target: Cathepsin D (Homo sapiens, UniProt P07339); experiment: Inhibitory activity against cathepsin D
[2] = system: Plasmodium falciparum; experiment: Inhibitory activity against Plasmodium falciparum; assay type: functional, organism-based
[3] = molecular target: T1, Plasmepsin II (Plasmodium falciparum, UniProt P46925); experiment: In vitro inhibition of plasmepsin-2 from Plasmodium falciparum.
T1 sequence (P46925 whole entry): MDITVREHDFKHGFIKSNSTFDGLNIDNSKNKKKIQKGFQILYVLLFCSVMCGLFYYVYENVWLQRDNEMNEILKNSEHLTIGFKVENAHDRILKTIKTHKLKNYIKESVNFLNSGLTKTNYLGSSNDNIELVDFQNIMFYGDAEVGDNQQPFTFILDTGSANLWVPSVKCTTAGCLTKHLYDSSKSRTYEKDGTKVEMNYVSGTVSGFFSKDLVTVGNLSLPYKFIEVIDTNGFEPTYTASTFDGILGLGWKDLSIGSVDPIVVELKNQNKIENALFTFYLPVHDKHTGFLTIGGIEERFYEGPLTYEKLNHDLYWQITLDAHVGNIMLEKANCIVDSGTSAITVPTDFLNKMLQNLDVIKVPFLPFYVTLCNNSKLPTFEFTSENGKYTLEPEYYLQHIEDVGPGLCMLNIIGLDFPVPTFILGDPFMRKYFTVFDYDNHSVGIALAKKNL

[4] = molecular target: T1, Plasmepsin II; experiment: Inhibitory activity against plasmepsin-2 from Plasmodium falciparum

Chain of Cathepsin D (P07339 65-162 limits assumed): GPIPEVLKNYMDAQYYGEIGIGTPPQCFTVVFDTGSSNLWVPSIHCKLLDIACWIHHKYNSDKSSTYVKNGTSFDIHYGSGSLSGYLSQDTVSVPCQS
Chain of Cathepsin D (P07339 169-412 limits assumed): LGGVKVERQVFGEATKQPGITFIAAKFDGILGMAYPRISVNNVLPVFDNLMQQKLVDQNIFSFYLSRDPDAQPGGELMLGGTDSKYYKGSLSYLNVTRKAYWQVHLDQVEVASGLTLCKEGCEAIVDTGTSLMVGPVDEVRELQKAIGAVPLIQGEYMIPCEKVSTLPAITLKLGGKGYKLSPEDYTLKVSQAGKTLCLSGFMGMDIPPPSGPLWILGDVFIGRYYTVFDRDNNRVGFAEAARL

SMILES | IC50 [1] | IC50 [2] | Ki [3] | Ki [1] | Ki [4]
CCCCNC(=O)CC(O)C(Cc1ccccc1)NC(=O)[C@@H](NC(=O)CN1CCC(C(N)=O)(c2ccccc2)CC1)[C@@H](C)CC (some centres not stated) | 5500 nM | ~20000 nM | 410 nM |  | 
CCCCNC(=O)CC(O)C(CC(C)C)NC(=O)[C@@H](NC(=O)Cc1ccc2ccccc2c1)[C@@H](C)CC (some centres not stated) |  |  |  | 320 nM | 50 nM
CCCCNC(=O)CC(O)C(Cc1ccccc1)NC(=O)[C@@H](NC(=O)COc1ccc2ccccc2c1)c1ccccc1 (some centres not stated) |  |  | 560 nM | 200 nM | 
CCCCNC(=O)CC(O)C(Cc1ccccc1)NC(=O)[C@@H](NC(=O)Cc1ccc2ccccc2c1)[C@@H](C)CC (some centres not stated) |  |  | 90 nM | 50 nM | 
CCCCNC(=O)CC(O)C(Cc1ccccc1)NC(=O)[C@@H](NC(=O)c1ccc(OC)cc1OC)C(C)C (some centres not stated) |  |  | 500 nM | 1600 nM | 
CCCCNC(=O)CC(O)C(Cc1ccccc1)NC(=O)[C@H](CCC(N)=O)NC(=O)COc1ccc2ccccc2c1 (some centres not stated) |  |  | > 30000 nM | 200 nM | 
CCCCNC(=O)CC(O)C(Cc1ccccc1)NC(=O)[C@@H](NC(=O)c1ccc(OC)cc1OC)[C@@H](C)CC (some centres not stated) |  |  | 220 nM | 2400 nM | 
CCCCNC(=O)CC(O)C(Cc1ccccc1)NC(=O)[C@@H](NC(=O)c1ccc(CN2CCCC2)cc1)[C@@H](C)CC (some centres not stated) | 1200 nM | ~10000 nM | 220 nM |  | 
CCCCNC(=O)CC(O)C(Cc1ccccc1)NC(=O)[C@@H](NC(=O)COc1ccc2ccccc2c1)[C@@H](C)CC (some centres not stated) | 500 nM | ~10000 nM | 110 nM |  | 
CCCCNC(=O)CC(O)C(CC(C)C)NC(=O)[C@H](Cc1ccccc1)NC(=O)COc1ccc2ccccc2c1 (some centres not stated) |  |  | 12000 nM | 1300 nM | 
CCCCNC(=O)CC(O)C(Cc1ccccc1)NC(=O)[C@H](NC(=O)COc1ccc2ccccc2c1)c1ccccc1 (some centres not stated) |  |  | 15000 nM | 700 nM | 
CC[C@H](C)[C@H](NC(=O)CN1CCC(C(N)=O)(c2ccccc2)CC1)C(=O)NC(Cc1ccccc1)C(O)CC(=O)NCCCc1ccccc1 (some centres not stated) |  |  | 600 nM | 3900 nM | 
CCCCNC(=O)CC(O)C(CC(C)C)NC(=O)[C@H](CC(C)C)NC(=O)COc1ccc2ccccc2c1 (some centres not stated) |  |  | 5600 nM | 920 nM | 
CCCCNC(=O)CC(O)C(CC(C)C)NC(=O)[C@@H](NC(=O)COc1ccc2ccccc2c1)c1ccccc1 (some centres not stated) |  |  | 5800 nM | 110 nM | 
CCC(C)C(NC(=O)c1ccc(CNC)cc1)C(=O)NC(CC(C)C)C(O)CC(=O)NCCCc1ccccc1 (configuration not stated) |  |  | 440 nM | 1300 nM | 
CCCCNC(=O)CC(O)C(Cc1ccccc1)NC(=O)[C@@H](NC(=O)c1ccc(OC)cc1OC)c1ccccc1 (stereo in doubt; form 1) |  |  | 590 nM | 2100 nM | 
CCCCNC(=O)CC(O)C(Cc1ccccc1)NC(=O)[C@@H](NC(=O)c1ccc(OC)cc1OC)c1ccccc1 (stereo in doubt; form 2) |  |  | > 30000 nM | 6200 nM | 
